{"source": "PubChem BioAssay (NCI)", "test_in_all_cases": "DTP human tumour cell line panel, 48 h", "key": {"[1]": {"tested_on": "786-0 renal"}, "[2]": {"tested_on": "A549 NSCLC"}, "[3]": {"tested_on": "ACHN renal"}, "[4]": {"tested_on": "CCRF-CEM leukemia"}, "[5]": {"tested_on": "COLO 205 colon"}, "[6]": {"tested_on": "DLD-1 colon"}, "[7]": {"tested_on": "DMS 114 small cell lung"}, "[8]": {"tested_on": "DMS 273 small cell lung"}, "[9]": {"tested_on": "HCC-2998 colon"}, "[10]": {"tested_on": "HCT-116 colon"}, "[11]": {"tested_on": "HCT-15 colon"}, "[12]": {"tested_on": "HL-60(TB) leukemia"}, "[13]": {"tested_on": "HOP-18 NSCLC"}, "[14]": {"tested_on": "HOP-62 NSCLC"}, "[15]": {"tested_on": "HOP-92 NSCLC"}, "[16]": {"tested_on": "HT29 colon"}, "[17]": {"tested_on": "IGROV1 ovarian"}, "[18]": {"tested_on": "K-562 leukemia"}, "[19]": {"tested_on": "KM12 colon"}, "[20]": {"tested_on": "KM20L2 colon"}, "[21]": {"tested_on": "LOX IMVI melanoma"}, "[22]": {"tested_on": "LXFL 529 NSCLC"}, "[23]": {"tested_on": "M14 melanoma"}, "[24]": {"tested_on": "M19-MEL melanoma"}, "[25]": {"tested_on": "MALME-3M melanoma"}, "[26]": {"tested_on": "NCI-H226 lung"}, "[27]": {"tested_on": "NCI-H460 lung"}, "[28]": {"tested_on": "NCI-H522 lung"}, "[29]": {"tested_on": "OVCAR-3 ovarian"}, "[30]": {"tested_on": "OVCAR-4 ovarian"}, "[31]": {"tested_on": "OVCAR-5 ovarian"}, "[32]": {"tested_on": "OVCAR-8 ovarian"}, "[33]": {"tested_on": "RPMI-8226 leukemia"}, "[34]": {"tested_on": "RXF 393 renal"}, "[35]": {"tested_on": "SF-268 CNS"}, "[36]": {"tested_on": "SF-539 CNS"}, "[37]": {"tested_on": "SK-MEL-2 melanoma"}, "[38]": {"tested_on": "SK-MEL-28 melanoma"}, "[39]": {"tested_on": "SK-MEL-5 melanoma"}, "[40]": {"tested_on": "SK-OV-3 ovarian"}, "[41]": {"tested_on": "SN12C renal"}, "[42]": {"tested_on": "SNB-19 CNS"}, "[43]": {"tested_on": "SNB-78 CNS"}, "[44]": {"tested_on": "SR leukemia"}, "[45]": {"tested_on": "SW-620 colon"}, "[46]": {"tested_on": "TK-10 renal"}, "[47]": {"tested_on": "U251 CNS"}, "[48]": {"tested_on": "UACC-62 melanoma"}, "[49]": {"tested_on": "UO-31 renal"}, "[50]": {"tested_on": "XF 498 CNS"}}, "note": "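How tested: cells in 96-well plates exposed to compound for 48 hours at five concentrations. Here, GI50 denotes the concentration required for 50% inhibition of growth. TGI denotes the concentration required for complete inhibition of growth.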", "data": [{"smiles": "COc1cc(C)cc2c1[nH]c1ccccc12", "values": [{"measurement": "GI50", "setting": "[1]", "value": 9.37, "unit": "µM"}, {"measurement": "TGI", "setting": "[1]", "value": "> 25", "unit": "µM"}, {"measurement": "TGI", "setting": "[2]", "value": "> 25", "unit": "µM"}, {"measurement": "GI50", "setting": "[3]", "value": 23.4, "unit": "µM"}, {"measurement": "TGI", "setting": "[3]", "value": "> 25", "unit": "µM"}, {"measurement": "GI50", "setting": "[4]", "value": 15.4, "unit": "µM"}, {"measurement": "TGI", "setting": "[4]", "value": "> 25", "unit": "µM"}, {"measurement": "GI50", "setting": "[5]", "value": 12.4, "unit": "µM"}, {"measurement": "TGI", "setting": "[5]", "value": "> 25", "unit": "µM"}, {"measurement": "GI50", "setting": "[6]", "value": 10.5, "unit": "µM"}, {"measurement": "TGI", "setting": "[6]", "value": "> 25", "unit": "µM"}, {"measurement": "TGI", "setting": "[7]", "value": "> 25", "unit": "µM"}, {"measurement": "GI50", "setting": "[8]", "value": 7.73, "unit": "µM"}, {"measurement": "TGI", "setting": "[8]", "value": "> 25", "unit": "µM"}, {"measurement": "GI50", "setting": "[9]", "value": 14.9, "unit": "µM"}, {"measurement": "TGI", "setting": "[9]", "value": "> 25", "unit": "µM"}, {"measurement": "GI50", "setting": "[10]", "value": 11.4, "unit": "µM"}, {"measurement": "TGI", "setting": "[10]", "value": "> 25", "unit": "µM"}, {"measurement": "GI50", "setting": "[11]", "value": 7.45, "unit": "µM"}, {"measurement": "TGI", "setting": "[11]", "value": "> 25", "unit": "µM"}, {"measurement": "GI50", "setting": "[12]", "value": 6.88, "unit": "µM"}, {"measurement": "TGI", "setting": "[12]", "value": "> 25", "unit": "µM"}, {"measurement": "GI50", "setting": "[13]", "value": 290, "unit": "nM"}, {"measurement": "TGI", "setting": "[13]", "value": 12.7, "unit": "µM"}, {"measurement": "TGI", "setting": "[14]", "value": 18.6, "unit": "µM"}, {"measurement": "GI50", "setting": "[15]", "value": 23.5, "unit": "µM"}, {"measurement": "TGI", "setting": "[15]", "value": "> 25", "unit": "µM"}, {"measurement": "GI50", "setting": "[16]", "value": 7.78, "unit": "µM"}, {"measurement": "TGI", "setting": "[16]", "value": "> 25", "unit": "µM"}, {"measurement": "GI50", "setting": "[17]", "value": 14.8, "unit": "µM"}, {"measurement": "TGI", "setting": "[17]", "value": "> 25", "unit": "µM"}, {"measurement": "TGI", "setting": "[18]", "value": "> 25", "unit": "µM"}, {"measurement": "GI50", "setting": "[19]", "value": 8.12, "unit": "µM"}, {"measurement": "TGI", "setting": "[19]", "value": "> 25", "unit": "µM"}, {"measurement": "GI50", "setting": "[20]", "value": 7.53, "unit": "µM"}, {"measurement": "TGI", "setting": "[20]", "value": 19.6, "unit": "µM"}, {"measurement": "GI50", "setting": "[21]", "value": 12.7, "unit": "µM"}, {"measurement": "TGI", "setting": "[21]", "value": "> 25", "unit": "µM"}, {"measurement": "GI50", "setting": "[22]", "value": 18.3, "unit": "µM"}, {"measurement": "TGI", "setting": "[22]", "value": "> 25", "unit": "µM"}, {"measurement": "GI50", "setting": "[23]", "value": 7.24, "unit": "µM"}, {"measurement": "TGI", "setting": "[23]", "value": 22.1, "unit": "µM"}, {"measurement": "GI50", "setting": "[24]", "value": 18.3, "unit": "µM"}, {"measurement": "TGI", "setting": "[24]", "value": "> 25", "unit": "µM"}, {"measurement": "GI50", "setting": "[25]", "value": 8.11, "unit": "µM"}, {"measurement": "TGI", "setting": "[25]", "value": "> 25", "unit": "µM"}, {"measurement": "GI50", "setting": "[26]", "value": 8.44, "unit": "µM"}, {"measurement": "TGI", "setting": "[26]", "value": "> 25", "unit": "µM"}, {"measurement": "GI50", "setting": "[27]", "value": 7.83, "unit": "µM"}, {"measurement": "TGI", "setting": "[27]", "value": "> 25", "unit": "µM"}, {"measurement": "GI50", "setting": "[28]", "value": 4.24, "unit": "µM"}, {"measurement": "TGI", "setting": "[28]", "value": 13.3, "unit": "µM"}, {"measurement": "TGI", "setting": "[29]", "value": "> 25", "unit": "µM"}, {"measurement": "TGI", "setting": "[30]", "value": "> 25", "unit": "µM"}, {"measurement": "TGI", "setting": "[31]", "value": "> 25", "unit": "µM"}, {"measurement": "TGI", "setting": "[32]", "value": 23.9, "unit": "µM"}, {"measurement": "TGI", "setting": "[33]", "value": "> 25", "unit": "µM"}, {"measurement": "TGI", "setting": "[34]", "value": 22.5, "unit": "µM"}, {"measurement": "GI50", "setting": "[35]", "value": 14.3, "unit": "µM"}, {"measurement": "TGI", "setting": "[35]", "value": "> 25", "unit": "µM"}, {"measurement": "GI50", "setting": "[36]", "value": 6.01, "unit": "µM"}, {"measurement": "TGI", "setting": "[36]", "value": 14.5, "unit": "µM"}, {"measurement": "GI50", "setting": "[37]", "value": 7.33, "unit": "µM"}, {"measurement": "TGI", "setting": "[37]", "value": "> 25", "unit": "µM"}, {"measurement": "GI50", "setting": "[38]", "value": 16.3, "unit": "µM"}, {"measurement": "TGI", "setting": "[38]", "value": "> 25", "unit": "µM"}, {"measurement": "GI50", "setting": "[39]", "value": 9.19, "unit": "µM"}, {"measurement": "TGI", "setting": "[39]", "value": "> 25", "unit": "µM"}, {"measurement": "GI50", "setting": "[40]", "value": 20.9, "unit": "µM"}, {"measurement": "TGI", "setting": "[40]", "value": "> 25", "unit": "µM"}, {"measurement": "GI50", "setting": "[41]", "value": 14.1, "unit": "µM"}, {"measurement": "TGI", "setting": "[41]", "value": "> 25", "unit": "µM"}, {"measurement": "TGI", "setting": "[42]", "value": "> 25", "unit": "µM"}, {"measurement": "TGI", "setting": "[43]", "value": "> 25", "unit": "µM"}, {"measurement": "GI50", "setting": "[44]", "value": 10.3, "unit": "µM"}, {"measurement": "TGI", "setting": "[44]", "value": "> 25", "unit": "µM"}, {"measurement": "GI50", "setting": "[45]", "value": 8.35, "unit": "µM"}, {"measurement": "TGI", "setting": "[45]", "value": "> 25", "unit": "µM"}, {"measurement": "TGI", "setting": "[46]", "value": "> 25", "unit": "µM"}, {"measurement": "GI50", "setting": "[47]", "value": 10.4, "unit": "µM"}, {"measurement": "TGI", "setting": "[47]", "value": "> 25", "unit": "µM"}, {"measurement": "GI50", "setting": "[48]", "value": 15, "unit": "µM"}, {"measurement": "TGI", "setting": "[48]", "value": "> 25", "unit": "µM"}, {"measurement": "GI50", "setting": "[49]", "value": 15, "unit": "µM"}, {"measurement": "TGI", "setting": "[49]", "value": "> 25", "unit": "µM"}, {"measurement": "GI50", "setting": "[50]", "value": 22.6, "unit": "µM"}, {"measurement": "TGI", "setting": "[50]", "value": "> 25", "unit": "µM"}]}]}
